Laboratory results from patent US20070249607A1, “NK-1 AND SEROTONIN TRANSPORTER INHIBITORS” (Bristol-Myers Squibb Company, priority 2006, published 2007).
pIC50: −log10 of the molar value. Where two headings read alike, the source gives them in different places.

Experiments:
[1] = target: T1, human serotonin transporters (Homo sapiens, UniProt P31645); assay: Serotonin transporter binding assay ([3H]-citalopram competition, HEK-hSERT cell membranes)
T1 construct: expressed in transfected cells
Method: Serotonin transporter binding assay. HEK-293 cells that stably express human serotonin transporters (HEK-hSERT cells) were grown at 37° C. in 5% CO2 as a monolayer in medium consisting of EMEM supplemented with 10% fetal bovine serum and G418 sulfate (500 μg/ml). To prepare membranes for radioligand binding experiments, cells were rinsed twice with phosphate-buffered saline (138 mM NaCl, 4.1 mM KCl, 5.1 mM Na2PO4, 1.5 mM KH2PO4, 11.1 mM glucose, pH 7.4). Cells were transferred from plates to polypropylene tubes (16×100 mm), centrifuged at 1,200×g for 5 min and were frozen at −80° C. until assay. Following centrifugation, pellets were resuspended by homogenization in buffer consisting of 50 mM Tris (pH 7.7 at 25° C.), 120 mM NaCl and 5 mM KCl and then centrifuged at 32,000×g for 10 min. Following centrifugation, supernatants were discarded and pellets were resuspended in buffer consisting of 50 mM Tris (pH 7.4 at 25° C.), 150 mM NaCl and 5 mM KCl. Membrane homogenates (200 μl/plate) were incubated with 1 nM [^3H]-citalopram (specific activity=85 Ci/mmol) and increasing concentrations of test compounds for 1 hr at 25° C. in a total volume of 250 μl. The assay buffer consisted of 50 mM Tris (pH 7.4 at 25° C.), 120 mM NaCl and 5 mM KCl (pH 7.4 with conc. HCl). Plates were incubated for 1 hr at 25° C., then filtered through 0.5% PEI treated Whatman GF/B filters using a Brandel cell harvester. Filters were washed three times with 3 ml of ice-cold tris wash buffer. Non-specific binding was defined with 10 μM fluoxetine. Amount of radioligand bound in the presence and absence of competitor was analyzed by plotting (-)log drug concentration versus the amount of radioligand specifically bound. The midpoint of the displacement curve (IC50, nM), signifies the potency. Ki values can be calculated using the method of Cheng and Prusoff (Cheng and Prusoff, BiochemicalPharmacology, Vol 22, pp. 3099-3108, Pergamon Press (1973)).

[2] = target: T2, neurokinin-1 (NK-1) receptor (Homo sapiens, UniProt P25103); assay: NK-1 Binding assay ([125I] Substance P competition, U373 cell membranes); conditions: U373 membranes, [125I] Substance P displacement, read-out: NK-1 IC50
T2 construct: a human glioblastoma-astrocytoma cell line that endogenously expresses the neurokinin-1 (NK-1) receptor; endogenous in cells; host or cells: U373 human glioblastoma-astrocytoma cells (membranes)
Method: NK-1 Binding assay. U373 cells, a human glioblastoma-astrocytoma cell line that endogenously expresses the neurokinin-1 (NK-1) receptor, were grown in a monolayer culture at 37° C. in 5% CO2 and fed with Minimum Essential Medium (MEM) supplemented with 10% fetal bovine serum. Membranes were prepared as follows: Cells were washed twice with ice-cold phosphate-buffered saline (pH 7.4) and then incubated for 5-10 minutes with ice-cold 10 mM Tris buffer (pH 7.4) containing 5 mM EDTA. Cells were removed from plates, homogenized, and centrifuged at 32,000×g for 20 minutes. The resulting supernatant was discarded, and the pellet resuspended by homogenization in 50 mM Tris buffer (pH 7.4) containing 1 mM EDTA and centrifuged at 32,000×g for 20 minutes. The resulting supernatant was discarded, and the pellet resuspended by homogenization in NK-1 binding assay buffer (50 mM Tris-HCL (pH 7.4), 3 mM MnCl2, 200 μg/ml BSA, 5 μg/ml chymostatin, 40 μg/ml bacitracin and 4 μg/ml leupeptin).
On the day of an experiment the membrane preparation was thawed, homogenized and diluted with NK-1 binding assay buffer to the appropriate concentration. […] Substance P, at a concentration of […], and concentrations of drugs ranging from 10000 to 0.01 nM. Samples were incubated for 30 min at 20° C. then filtered through GF/B glass fiber filters (pretreated with 1% polyethyleneimine and 0.3% Triton X-100) using a Brandel cell harvester. The filters were then washed with 10 ml ice cold 50 mM Tris-HCL (pH 7.4) containing 3 mM MgCl2. […] The amount of radioligand bound in the presence and absence of competitor was analyzed by plotting (-)log drug concentration versus the amount of radioligand specifically bound. The midpoint of the displacement curve (IC50, nM), signifies the potency.

[3] = Table 2, HEK-hSERT membranes, [3H]-citalopram displacement, read-out: SERT IC50
[4] = Table 1, HEK-hSERT membranes, [3H]-citalopram displacement, read-out: SERT IC50

T2 sequence (P25103 whole entry): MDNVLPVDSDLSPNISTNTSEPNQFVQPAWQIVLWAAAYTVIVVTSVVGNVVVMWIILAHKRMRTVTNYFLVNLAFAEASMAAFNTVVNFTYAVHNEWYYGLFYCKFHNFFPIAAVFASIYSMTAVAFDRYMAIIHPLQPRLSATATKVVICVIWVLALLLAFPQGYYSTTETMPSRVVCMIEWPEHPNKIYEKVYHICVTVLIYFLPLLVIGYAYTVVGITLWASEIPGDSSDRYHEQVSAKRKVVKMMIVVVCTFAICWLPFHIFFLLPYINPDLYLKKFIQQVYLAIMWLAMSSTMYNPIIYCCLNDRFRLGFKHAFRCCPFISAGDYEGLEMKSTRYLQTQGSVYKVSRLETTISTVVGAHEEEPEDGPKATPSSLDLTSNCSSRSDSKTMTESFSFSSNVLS
T1 sequence (P31645 whole entry): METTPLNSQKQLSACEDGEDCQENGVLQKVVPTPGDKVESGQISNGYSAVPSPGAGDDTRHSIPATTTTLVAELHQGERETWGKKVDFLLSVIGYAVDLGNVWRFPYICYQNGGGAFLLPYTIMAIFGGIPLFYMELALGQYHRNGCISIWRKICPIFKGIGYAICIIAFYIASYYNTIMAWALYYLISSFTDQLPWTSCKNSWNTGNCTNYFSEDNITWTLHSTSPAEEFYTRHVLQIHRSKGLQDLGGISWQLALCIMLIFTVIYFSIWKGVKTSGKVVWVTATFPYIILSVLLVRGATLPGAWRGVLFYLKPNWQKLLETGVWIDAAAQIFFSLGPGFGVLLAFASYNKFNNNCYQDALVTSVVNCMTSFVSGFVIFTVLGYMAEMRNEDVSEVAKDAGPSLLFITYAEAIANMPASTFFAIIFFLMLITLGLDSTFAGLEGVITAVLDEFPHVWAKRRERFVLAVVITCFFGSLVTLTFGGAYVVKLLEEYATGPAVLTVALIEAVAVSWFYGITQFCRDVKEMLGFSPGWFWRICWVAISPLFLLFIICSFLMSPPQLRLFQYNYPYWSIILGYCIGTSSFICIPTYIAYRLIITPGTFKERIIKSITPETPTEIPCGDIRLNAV

| Compound | pIC50 [1, 3] | pIC50 ([2]; Table 2) | pIC50 [1, 4] | pIC50 ([2]; Table 1) | pIC50 [1] |
| --- | --- | --- | --- | --- | --- |
| CCN1CCC(COCc2cc(-c3ccc(C#N)cc3)cc(C(F)(F)F)c2)(c2ccccc2)CC1 | < 6.52 | 7.00 to 11.00 |  |  |  |
| Cn1nnc(-c2cc(COCC3(c4ccccc4)CCNCC3)cc(C(F)(F)F)c2)n1 |  |  | 7.00 to 11.00 | 7.00 to 11.00 |  |
| FC(F)(F)c1cccc(-c2cc(COCC3(c4ccccc4)CCNCC3)cc(C(F)(F)F)c2)c1 |  |  | 7.00 to 11.00 | 7.00 to 11.00 |  |
| N#Cc1ccc(-c2cc(COCC3(c4ccc(F)cc4Br)CCNCC3)cc(C(F)(F)F)c2)cc1 | 7.00 to 11.00 | 7.00 to 11.00 |  |  |  |
| COc1c(F)cc(-c2cc(COCC3(c4ccccc4)CCN(C)CC3)cc(C(F)(F)F)c2)cc1F |  | 7.00 to 11.00 |  |  | 7.00 to 11.00 |
| FC(F)(F)c1cc(COCC2(c3ccccc3)CCNCC2)cc(-c2ccncc2)c1 |  |  | 7.00 to 11.00 | 7.00 to 11.00 |  |
| Cn1nnnc1-c1cc(COCC2(c3ccccc3)CCNCC2)cc(C(F)(F)F)c1 |  |  | 7.00 to 11.00 | 7.00 to 11.00 |  |
| CCOc1ccc2cc(-c3cc(COCC4(c5ccccc5)CCNCC4)cc(C(F)(F)F)c3)ccc2c1 | 7.00 to 11.00 | 6.52 to 7.00 |  |  |  |
| N#Cc1ccc(-c2cc(COCC3(c4ccccc4)CCNCC3)cc(C(=O)N3CCOCC3)c2)cc1 | 7.00 to 11.00 | < 6.52 |  |  |  |
| FC(F)(F)c1cc(COCC2(c3ccccc3)CCNCC2)cc(-c2c(C(F)(F)F)cccc2C(F)(F)F)c1 | 7.00 to 11.00 | 7.00 to 11.00 |  |  |  |
| Cc1ccc(-c2cc(COCC3(c4ccccc4)CCNCC3)cc(C(F)(F)F)c2)s1 |  |  | 7.00 to 11.00 | 7.00 to 11.00 |  |
| CN1CCC(COCc2cc(-c3ccc(C#N)cc3)cc(C(F)(F)F)c2)(c2cccc(C#N)c2)CC1 |  | 7.00 to 11.00 |  |  | 7.00 to 11.00 |
| FC(F)(F)c1cc(COCC2(c3ccccc3)CCNCC2)cc(-c2cc(Cl)ccc2Cl)c1 | 7.00 to 11.00 | < 6.52 |  |  |  |
| Fc1cc(-c2cc(COCC3(c4ccccc4)CCNCC3)cc(C(F)(F)F)c2)ccc1-c1ccccc1 |  |  | 7.00 to 11.00 | < 6.52 |  |
| CCCCCc1ccc(-c2cc(COCC3(c4ccccc4)CCNCC3)cc(C(F)(F)F)c2)cc1 |  |  | 6.52 to 7.00 | 7.00 to 11.00 |  |
| N#Cc1ccc(-c2cc(F)cc(COCC3(c4ccccc4)CCNCC3)c2)cc1 | 7.00 to 11.00 | 7.00 to 11.00 |  |  |  |
| Cc1ccncc1-c1cc(COCC2(c3ccccc3)CCNCC2)cc(C(F)(F)F)c1 |  |  | 7.00 to 11.00 | < 6.52 |  |
| Cc1cc(C#N)ccc1-c1cc(COCC2(c3ccccc3)CCNCC2)cc(C(F)(F)F)c1 | 7.00 to 11.00 | 7.00 to 11.00 |  |  |  |
| FC(F)(F)c1cc(COCC2(c3ccccc3)CCNCC2)cc(-c2ccncc2Cl)c1 |  |  | 7.00 to 11.00 | 7.00 to 11.00 |  |
| CN1CCC(COCc2cc(-c3c(F)c(F)c(C#N)c(F)c3F)cc(C(F)(F)F)c2)(c2ccccc2)CC1 |  | 7.00 to 11.00 |  |  | 7.00 to 11.00 |
| N#Cc1c(F)c(F)c(-c2cc(COCC3(c4ccccc4)CCNCC3)cc(C(F)(F)F)c2)c(F)c1F | 7.00 to 11.00 | 7.00 to 11.00 |  |  |  |
| N#Cc1ccc(-c2cc(COCC3(c4ccccc4)CCN(C4CC4)CC3)cc(C(F)(F)F)c2)cc1 | < 6.52 | 7.00 to 11.00 |  |  |  |

| Compound | pIC50 [1, 3] | pIC50 ([2]; Table 2) | pIC50 [1, 4] | pIC50 ([2]; Table 1) | pIC50 [1] |
| --- | --- | --- | --- | --- | --- |
| FC(F)(F)c1cc(COCC2(c3ccccc3)CCNCC2)cc(-c2cc(C(F)(F)F)cc(C(F)(F)F)c2)c1 |  |  | 6.52 to 7.00 | 6.52 to 7.00 |  |
| Fc1cnc(Cl)c(-c2cc(COCC3(c4ccccc4)CCNCC3)cc(C(F)(F)F)c2)c1 | 7.00 to 11.00 | 6.52 to 7.00 |  |  |  |
| COc1ccc2cc(-c3cc(COCC4(c5ccccc5)CCNCC4)cc(C(F)(F)F)c3)ccc2c1 | 7.00 to 11.00 | < 6.52 |  |  |  |
| Cc1cc(-c2cc(COCC3(c4ccccc4)CCNCC3)cc(C(F)(F)F)c2)ccc1F | 7.00 to 11.00 | 7.00 to 11.00 |  |  |  |
| CN1CCC(COCc2cc(-c3ccncc3)cc(C(F)(F)F)c2)(c2ccccc2)CC1 |  |  |  | 7.00 to 11.00 | 7.00 to 11.00 |
| N#Cc1ccc(-c2cc(COCC3(c4ccc(F)cc4C#N)CCNCC3)cc(C(F)(F)F)c2)cc1 | 7.00 to 11.00 | 7.00 to 11.00 |  |  |  |
| OCc1ccccc1-c1cc(COCC2(c3ccccc3)CCNCC2)cc(C(F)(F)F)c1 |  |  | 7.00 to 11.00 | 6.52 to 7.00 |  |
| CCc1ccccc1-c1cc(COCC2(c3ccccc3)CCNCC2)cc(C(F)(F)F)c1 | 7.00 to 11.00 | < 6.52 |  |  |  |
| COc1cccc(-c2cc(COCC3(c4ccccc4)CCNCC3)cc(C(F)(F)F)c2)c1OC | 6.52 to 7.00 | 6.52 to 7.00 |  |  |  |
| CN1CCC(COCc2cc(-c3ccc(C#N)cc3)cc(C(F)(F)F)c2)(c2ccccc2)CC1 |  |  |  | 7.00 to 11.00 | 7.00 to 11.00 |
| COC(=O)c1cc(-c2cc(COCC3(c4ccccc4)CCNCC3)cc(C(F)(F)F)c2)cc([N+](=O)[O-])c1 | 7.00 to 11.00 | < 6.52 |  |  |  |
| CN1CCC(COCc2cc(-c3cccc(F)c3)cc(C(F)(F)F)c2)(c2ccccc2)CC1 |  | 7.00 to 11.00 |  |  | 7.00 to 11.00 |
| COc1ccc(Cl)cc1-c1cc(COCC2(c3ccccc3)CCNCC2)cc(C(F)(F)F)c1 |  |  | 7.00 to 11.00 | < 6.52 |  |
| FC(F)(F)c1cc(COCC2(c3ccccc3)CCNCC2)cc(-c2ncccn2)c1 |  |  | 7.00 to 11.00 | 6.52 to 7.00 |  |
| N#Cc1ccc(-c2cc(COCC3(c4ccc(F)c(F)c4)CCNCC3)cc(C(F)(F)F)c2)cc1 | 7.00 to 11.00 | 7.00 to 11.00 |  |  |  |
| C[C@@H](OCC1(c2ccccc2)CCN(C)CC1)c1cc(-c2ccc(C#N)cc2)cc(C(F)(F)F)c1 |  | 7.00 to 11.00 |  |  | 7.00 to 11.00 |
| FC(F)(F)c1cc(COCC2(c3ccccc3)CCNCC2)cc(-c2ccc(Cl)cc2Cl)c1 |  |  | 7.00 to 11.00 | 7.00 to 11.00 |  |
| Cn1cc(-c2cc(COCC3(c4ccccc4)CCNCC3)cc(C(F)(F)F)c2)cn1 | 7.00 to 11.00 | 7.00 to 11.00 |  |  |  |
| CN(C)C(=O)c1cc(COCC2(c3ccccc3)CCNCC2)cc(-c2ccc(C#N)cc2)c1 | 7.00 to 11.00 | < 6.52 |  |  |  |
| CN1CCC(COCc2cc(F)cc(-c3ccc(F)cc3)c2)(c2ccccc2)CC1 |  | 6.52 to 7.00 |  |  | 7.00 to 11.00 |
| CN1CCN(c2cc(-c3cc(COCC4(c5ccccc5)CCNCC4)cc(C(F)(F)F)c3)ccn2)CC1 |  |  | 6.52 to 7.00 | < 6.52 |  |
| Cc1cc(-c2cc(COCC3(c4ccccc4)CCNCC3)cc(C(F)(F)F)c2)cc(C)c1O | 7.00 to 11.00 | < 6.52 |  |  |  |
